US20060069132A1, “Azolecarboxamide herbicides” (priority 2004, published 2006)

Columns and labels:
pigweed = assay: Test C pre-/postemergence herbicide test; type: in vivo, Amaranthus retroflexus; conditions: for Pigweed plant response rating: 500 g ai/ha
Procedure, shortened: (§1)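 Seeds were planted and sprayed preemergence with test chemicals in a non-phytotoxic solvent mixture containing surfactant; postemergence treatments went onto plants 2 to 18 cm tall (1- to 4-leaf stage). After 12 to 14 days in a greenhouse, injury was rated visually against untreated controls on a 0–100 scale.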

guineagrass = assay: Test E pre-/postemergence herbicide test; type: in vivo, Panicum maximum
Procedure, shortened: (§2)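 Test chemicals in a non-phytotoxic solvent mixture with surfactant applied preemergence to planted seeds and postemergence to plants 2 to 18 cm tall (1- to 4-leaf stage). After 12 to 14 days in the greenhouse, injury rated visually against untreated controls on a 0–100 scale (0 no effect, 100 complete control).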

southern sandbur = assay: Test E pre-/postemergence herbicide test; type: in vivo, Cenchrus echinatus
Procedure, shortened: as §2

[1] = system: common (oilseed) sunflower; assay: Test C pre-/postemergence herbicide test; type: in vivo, Helianthus annuus; conditions: for Sunflower plant response rating: Preemergence, 500 g ai/ha, scale 0 to 100, 0 no effect, 100 complete control
Procedure, shortened: as §1

lambsquarters = assay: Test C pre-/postemergence herbicide test; type: in vivo, Chenopodium album; conditions: for Lambsquarters plant response rating: 500 g ai/ha
Procedure, shortened: as §1

ducksalad = assay: Test C flooded paddy test; type: in vivo, Heteranthera limosa; conditions: for Plant response rating, Ducksalad: 500 g ai/ha, visual rating after 12 to 14 days
common ragweed = assay: Test C pre-/postemergence herbicide test; type: in vivo, Ambrosia elatior; set-up: key to Plant response rating, Ragweed: 0 = no effect, 100 = complete control; conditions: for Ragweed plant response rating: 500 g ai/ha
Procedure, shortened: as §1

large crabgrass = assay: Test C pre-/postemergence herbicide test; type: in vivo, Digitaria sanguinalis; conditions: for Crabgrass, Large plant response rating: 500 g ai/ha
Procedure, shortened: as §1

[2] = 125 g ai/ha, scale 0 (no effect) to 100 (complete control), visual, 12 to 14 days, preemergence
[3] = Postemergence, 250 g ai/ha, scale 0 to 100, 0 no effect, 100 complete control
[4] = Preemergence, scale 0 to 100, 0 no effect, 100 complete control
[5] = postemergence, 125 g ai/ha, scale 0 to 100
[6] = postemergence, 62 g ai/ha, scale 0 to 100
[7] = Preemergence, 62 g ai/ha, scale 0 to 100
[8] = Preemergence, 125 g ai/ha, scale 0 (no effect) to 100 (complete control)
[9] = Preemergence, 250 g ai/ha, scale 0 (no effect) to 100 (complete control)
[10] = Preemergence, 500 g ai/ha, scale 0 (no effect) to 100 (complete control)
[11] = 62 g ai/ha, scale 0 to 100 (0 no effect, 100 complete control)
[12] = 125 g ai/ha, scale 0 to 100 (0 no effect, 100 complete control)
[13] = 250 g ai/ha, scale of 0 to 100, 0 is no effect, 100 is complete control
[14] = scale 0 to 100 (0 no effect, 100 complete control)
[15] = Postemergence, 500 g ai/ha, scale 0 to 100
[16] = Postemergence, 250 g ai/ha, scale 0 to 100
[17] = Preemergence, 125 g ai/ha, scale 0 to 100
[18] = 62 g ai/ha, preemergence, scale 0 to 100
[19] = 250 g ai/ha, scale 0-100, preemergence

SMILES: CCNC(=O)c1cccc(NC(=O)c2cc(C(C)(C)C)nn2CC)n1 [Compound 144]
- Plant response rating (0 = no effect, 100 = complete control), Pigweed (pigweed; 62 g ai/ha, preemergence): 90
- Plant response rating, Pigweed (pigweed; [2]): 90
- Pigweed plant response rating (pigweed; Postemergence, scale 0 to 100): 100
- Plant response rating, Pigweed (pigweed; [3]): 100
- Pigweed plant response rating (pigweed; [4]): 100
- Plant response rating, Pigweed (pigweed; [5]): 100
- Plant response rating, Pigweed (pigweed; [6]): 100
- Plant response rating, Guineagrass (guineagrass; [7]): 10
- Plant response rating, Guineagrass (guineagrass; [8]): 20
- Plant response rating, Guineagrass (guineagrass; [9]): 60
- Plant response rating, Guineagrass (guineagrass; [10]): 80
- Plant response rating, Sandbur (southern sandbur; [7]): 10
- Plant response rating, Sandbur (southern sandbur; [8]): 30
- Plant response rating, Sandbur (southern sandbur; [9]): 30
- Plant response rating, Sandbur (southern sandbur; [10]): 60
- Plant response rating (0 = no effect, 100 = complete control), Sunflower ([1]; 62 g ai/ha, preemergence): 0
- Plant response rating, Sunflower [1, 2]: 0
- Sunflower plant response rating [1]: 40
- Plant response rating (0 = no effect, 100 = complete control), Lambsquarters (lambsquarters; 62 g ai/ha, preemergence): 95
- Plant response rating, Lambsquarters (lambsquarters; [2]): 95
- Lambsquarters plant response rating (lambsquarters; Postemergence, scale 0 to 100): 100
- Plant response rating, Lambsquarters (lambsquarters; [3]): 100
- Lambsquarters plant response rating (lambsquarters; [4]): 100
- Plant response rating, Lambsquarters (lambsquarters; [5]): 100
- Plant response rating, Lambsquarters (lambsquarters; [6]): 100
- Ducksalad plant response rating (ducksalad; [11]): 20
- Ducksalad plant response rating (ducksalad; [12]): 50
- Ducksalad plant response rating (ducksalad; [13]): 70
- Plant response rating, Ducksalad (ducksalad; [14]): 80
- Plant response rating (0 = no effect, 100 = complete control), Ragweed (common ragweed; 62 g ai/ha, preemergence): 0
- Plant response rating, Ragweed (common ragweed; [2]): 30
- Ragweed plant response rating (common ragweed; Postemergence, scale 0 to 100): 80
- Plant response rating, Ragweed (common ragweed; [3]): 50
- Ragweed plant response rating (common ragweed; [4]): 80
- Plant response rating, Ragweed (common ragweed; [5]): 0
- Plant response rating, Ragweed (common ragweed; [6]): 0
- Plant response rating (0 = no effect, 100 = complete control), Crabgrass, Large (large crabgrass; 62 g ai/ha, preemergence): 50
- Plant response rating, Crabgrass, Large (large crabgrass; [2]): 70
- Plant response rating, Crabgrass, Large (large crabgrass; 250 g ai/ha, scale 0 to 100 (0 no effect, 100 complete control), visual, 12 to 14 days, preemergence): 85
- Crabgrass, Large plant response rating (large crabgrass; Postemergence, scale 0 to 100): 100
- Plant response rating, Crabgrass, Large (large crabgrass; [3]): 100
- Crabgrass, Large plant response rating (large crabgrass; [4]): 100
- Plant response rating, Crabgrass, Large (large crabgrass; [5]): 10
- Plant response rating, Crabgrass, Large (large crabgrass; [6]): 0

SMILES: CCn1nc(C(C)(C)C)cc1C(=O)Nc1cc(C(=O)N(C)C)ccn1 [Compound 156, 2-[[[3-(1,1-dimethylethyl)-1-ethyl-1H-pyrazol-5-yl]carbonyl]amino]-N,N-dimethyl-4-pyridinecarboxamide]
- pest or weed control at 62 g/ha (pigweed; Amaranthus retroflexus, pre-emergence, 62 g ai/ha, preemergence, scale 0 to 100, read-out: Plant response rating, Pigweed): 95%
- pest or weed control at 125 g/ha (pigweed; Amaranthus retroflexus, pre-emergence, 125 g ai/ha, scale 0 (no effect) to 100 (complete control), visual, 12 to 14 days, read-out: Plant response rating, Pigweed): 98%
- Pigweed plant response rating (pigweed; [4]): 100
- Plant response rating, Guineagrass (guineagrass; [15]): 98
- Plant response rating, Guineagrass (guineagrass; [16]): 95
- Plant response rating, Guineagrass (guineagrass; [7]): 90
- Plant response rating, Guineagrass (guineagrass; [17]): 100
- Plant response rating, Guineagrass (guineagrass; [9]): 100
- Plant response rating, Guineagrass (guineagrass; [10]): 100
- Plant response rating, Guineagrass (guineagrass; [5]): 90
- Plant response rating, Guineagrass (guineagrass; [6]): 60
- Plant response rating, Sandbur (southern sandbur; [15]): 98
- Plant response rating, Sandbur (southern sandbur; [16]): 80
- Plant response rating, Sandbur (southern sandbur; [7]): 50
- Plant response rating, Sandbur (southern sandbur; [17]): 60
- Plant response rating, Sandbur (southern sandbur; [9]): 75
- Plant response rating, Sandbur (southern sandbur; [10]): 80
- Plant response rating, Sandbur (southern sandbur; [5]): 75
- Plant response rating, Sandbur (southern sandbur; [6]): 0
- pest or weed control at 62 g/ha ([1]; Helianthus annuus, pre-emergence, 62 g ai/ha, preemergence, scale 0 to 100, read-out: Plant response rating, Sunflower): 25%
- pest or weed control at 125 g/ha ([1]; Helianthus annuus, pre-emergence, 125 g ai/ha, scale 0 (no effect) to 100 (complete control), visual, 12 to 14 days, read-out: Plant response rating, Sunflower): 45%
- Sunflower plant response rating [1]: 85
- pest or weed control at 62 g/ha (lambsquarters; Chenopodium album, pre-emergence, 62 g ai/ha, preemergence, scale 0 to 100, read-out: Plant response rating, Lambsquarters): 100%
- pest or weed control at 125 g/ha (lambsquarters; Chenopodium album, pre-emergence, 125 g ai/ha, scale 0 (no effect) to 100 (complete control), visual, 12 to 14 days, read-out: Plant response rating, Lambsquarters): 100%
- Lambsquarters plant response rating (lambsquarters; [4]): 100
- pest or weed control at 62 g/ha (common ragweed; Ambrosia artemisiifolia, pre-emergence, 62 g ai/ha, preemergence, scale 0 to 100, read-out: Plant response rating, Ragweed): 90%
- pest or weed control at 125 g/ha (common ragweed; Ambrosia artemisiifolia, pre-emergence, 125 g ai/ha, scale 0 (no effect) to 100 (complete control), visual, 12 to 14 days, read-out: Plant response rating, Ragweed): 100%
- Ragweed plant response rating (common ragweed; [4]): 100
- pest or weed control at 62 g/ha (large crabgrass; Digitaria sanguinalis, pre-emergence, 312 h, 62 g ai/ha, preemergence, scale 0 to 100, read-out: Plant response rating, Crabgrass, Large): 60%
- pest or weed control at 125 g/ha (large crabgrass; Digitaria sanguinalis, pre-emergence, 312 h, 125 g ai/ha, scale 0 (no effect) to 100 (complete control), visual, 12 to 14 days, read-out: Plant response rating, Crabgrass, Large): 85%
- pest or weed control at 250 g/ha (large crabgrass; Digitaria sanguinalis, pre-emergence, 312 h, 250 g ai/ha, scale 0 to 100 (0 no effect, 100 complete control), visual, 12 to 14 days, read-out: Plant response rating, Crabgrass, Large): 90%
- Crabgrass, Large plant response rating (large crabgrass; [4]): 100

SMILES: CCNC(=O)c1ccc(F)c(NC(=O)c2cn(C(C)(C)C)nc2CC)c1 [Compound 193]
- Plant response rating, Pigweed (pigweed; [18]): 100
- Plant response rating, Pigweed (pigweed; [2]): 100
- Plant response rating, Pigweed (pigweed; [19]): 100
- Pigweed plant response rating (pigweed; [4]): 100
- Plant response rating, Guineagrass (guineagrass; [15]): 100
- Plant response rating, Guineagrass (guineagrass; [16]): 70
- Plant response rating, Guineagrass (guineagrass; [7]): 60
- Plant response rating, Guineagrass (guineagrass; [17]): 70
- Plant response rating, Guineagrass (guineagrass; [9]): 100
- Plant response rating, Guineagrass (guineagrass; [10]): 100
- Plant response rating, Guineagrass (guineagrass; [5]): 60
- Plant response rating, Guineagrass (guineagrass; [6]): 20
- Plant response rating, Sandbur (southern sandbur; [15]): 20
- Plant response rating, Sandbur (southern sandbur; [16]): 10
- Plant response rating, Sandbur (southern sandbur; [7]): 0
- Plant response rating, Sandbur (southern sandbur; [17]): 10
- Plant response rating, Sandbur (southern sandbur; [9]): 20
- Plant response rating, Sandbur (southern sandbur; [10]): 60
- Plant response rating, Sandbur (southern sandbur; [5]): 0
- Plant response rating, Sandbur (southern sandbur; [6]): 0
- Plant response rating, Sunflower [1, 18]: 0
- Plant response rating, Sunflower [1, 2]: 0
- Plant response rating, Sunflower [1, 19]: 0
- Sunflower plant response rating [1]: 50
- Plant response rating, Lambsquarters (lambsquarters; [18]): 50
- Plant response rating, Lambsquarters (lambsquarters; [2]): 100
- Plant response rating, Lambsquarters (lambsquarters; [19]): 100
- Lambsquarters plant response rating (lambsquarters; [4]): 100
- Ducksalad plant response rating (ducksalad; [11]): 55
- Ducksalad plant response rating (ducksalad; [12]): 70
- Ducksalad plant response rating (ducksalad; [13]): 90
- Plant response rating, Ducksalad (ducksalad; [14]): 90
- Plant response rating, Ragweed (common ragweed; [18]): 0
- Plant response rating, Ragweed (common ragweed; [2]): 100
- Plant response rating, Ragweed (common ragweed; [19]): 100
- Ragweed plant response rating (common ragweed; [4]): 100
- Plant response rating, Crabgrass, Large (large crabgrass; [18]): 40
- Plant response rating, Crabgrass, Large (large crabgrass; [2]): 85
- Plant response rating, Crabgrass, Large (large crabgrass; [19]): 85
- Crabgrass, Large plant response rating (large crabgrass; [4]): 100
